Values of other authors as cited in patent US20180203025A1, “HDL THERAPY MARKERS” (Cerenis Therapeutics Holding SA, priority 2014, published 2018).
Read-outs that look alike come from different tables or passages of the source.

Legend:
[1] = associated to statin; cited from earlier work
[2] = ACS patients, cited from earlier work
[3] = compared to atorvastatin; cited from earlier work
[4] = added to 80 mg atorvastatin, cited from earlier work

With `Cc1cc(C)c2c(c1)[C@@H](N(Cc1cc(C(F)(F)F)cc(C(F)(F)F)c1)c1nnn(C)n1)CCCN2C[C@H]1CC[C@H](C(=O)O)CC1` [evacetrapib] as the compound, how does the “further decrease of LDL-cholesterol” value [1] read?
The value was “about 40%”.

Which ApoA-I increase [2] does the source give for `CCC(CC)CC1(C(=O)Nc2ccccc2SC(=O)C(C)C)CCCCC1` [dalcetrapib] here?
Its ApoA-I increase is 18%.

And the HDL-cholesterol increase [2]?
The HDL-cholesterol increase was “about 30%”.

And the LDL-cholesterol [2]?
Its LDL-cholesterol is “no changes in LDL-cholesterol”.

What about the “clinical benefit compared to placebo” value ([2]; interim analysis) of the same compound?
The value was “no benefit”.

What about the LDL-cholesterol [1] of the same compound?
The LDL-cholesterol was “remains unchanged”.

For `COc1cc(F)c(C(C)C)cc1-c1ccc(C(F)(F)F)cc1CN1C(=O)O[C@H](c2cc(C(F)(F)F)cc(C(F)(F)F)c2)[C@@H]1C` [anacetrapib], which HDL-cholesterol increase [3] is on record?
The HDL-cholesterol increase was “about 140%”.

And the LDL-cholesterol lowering [3]?
The LDL-cholesterol lowering was 40%.

What about the “further decrease of LDL-cholesterol” value [1] of the same compound?
Its value is “about 40%”.

Which HDL-cholesterol increase ([4]; compared to Atorvastatin alone) does the source give for `CCOC(=O)N1c2ccc(C(F)(F)F)cc2[C@@H](N(Cc2cc(C(F)(F)F)cc(C(F)(F)F)c2)C(=O)OC)C[C@H]1CC` [torcetrapib] here?
The HDL-cholesterol increase was 80%.

And the LDL-cholesterol decrease ([4]; compared to Atorvastatin alone)?
Its LDL-cholesterol decrease is 25%.

And the mortality and morbidity ([4]; 15 067 patients)?
Its mortality and morbidity is “increase of the mortality and morbidity”.

And the “further decrease of LDL-cholesterol” value [1]?
The value was “about 40%”.
